From patent publication US20060100431A1, “Biologically active compounds” (Amura Therapeutics Limited, priority 2002, published 2006)
Read-outs that look alike come from different tables or passages of the source.

Key:
Assay type in all cases: biochemical
[1] = biological target: T1, human cathepsin L (Homo sapiens, UniProt P07711); experiment: Cathepsin L peptidase activity assay (Ki); conditions: read-out: Ki, inhibitors of cathepsin L
T1 construct: purchased CN Biosciences
In short: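 Human cathepsin L at 1 nM with Ac-Phe-Arg-AMC at its KM^app (~20 μM) in 10 mM bis-tris-propane pH 6.5, 1 mM EDTA, 5 mM 2-mercaptoethanol, 1 mM CaCl2, DMSO <1%, 25±1° C. Reaction enzyme-initiated; AMC fluorescence (ex 365/em 450 nm) monitored over time.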

[2] = biological target: T2, human cathepsin B (Homo sapiens, UniProt P07858); experiment: Cathepsin B peptidase activity assay (Ki)
T2 construct: purchased CN Biosciences
Procedure: Unless otherwise stated, all general chemicals and biochemicals were purchased from either the Sigma Chemical Company, Poole, Dorset, U.K or from Fisher Scientific UK, Loughborough, Leicestershire, U.K. Absorbance assays were carried out in flat-bottomed 96-well plates (Spectra; Greiner Bio-One Ltd., Stonehouse, Gloucestershire, U.K.) using a SpectraMax PLUS384 plate reader (Molecular Devices, Crawley, U.K.). […] Fluorescence assays were monitored using a SpectraMax Gemini fluorescence plate reader (Molecular Devices). For substrates employing either a 7-amino-4-methylcoumarin (AMC) or a 7-amino-4-trifluoromethylcoumarin (AFC) fluorophore, assays were monitored at an excitation wavelength of 365 nm and an emission wavelength of 450 nm and the fluorescence plate reader calibrated with AMC. For substrates employing a 3-amino-benzoyl (Abz) fluorophore, assays were monitored at an excitation wavelength of 310 nm and an emission wavelength of 445 nm; the fluorescence plate reader calibrated with 3-amino-benzamide (Fluka). Unless otherwise indicated, all the peptidase substrates were purchased from Bachem UK, St Helens, Merseyside, UK. […] Hydroxyethylpiperazine ethanesulfonate (HEPES), tris-hydroxylmethyl aminomethane (tris) base, bis-tris-propane and all the biological detergents (e.g. CHAPS, zwittergents, etc.) were purchased from CN Biosciences UK, Beeston, Nottinghamshire, U.K. Glycerol was purchased from Amersham Pharmacia Biotech, Little Chalfont, Buckinghamshire, U.K. Stock solutions of substrate or inhibitor were made up to 10 mM in 100% dimethylsulfoxide (DMSO) (Rathburns, Glasgow, U.K.) and diluted as appropriately required. In all cases the DMSO concentration in the assays was maintained at less than 1% (vol./vol.).
Enzyme was added as required to initiate the reaction and the activity, as judged by the change in fluorescence upon conversion of substrate to product, was monitored over time. All assays were carried out at 25±1° C.
Bovine cathepsin S, human cathepsin L, human cathepsin H and human cathepsin B were obtained from CN Biosciences. Recombinant human cathepsin S, human cathepsin K and human cathepsin X were obtained from Dr. Boris Turk (Josef Stefan Institute, Ljubljana, Slovenia). Unless otherwise stated, all peptidase activity assays were carried out in 10 mM bis-tris-propane (BTP), pH 6.5 containing 1 mM EDTA, 5 mM 2-mercaptoethanol and 1 mM CaCl2.
The apparent inhibition constant (Ki) for each compound was determined on the basis that inhibition was reversible and occurred by a pure-competitive mechanism. […] [formula]
[formula] Ki^app=Ki(1+[So]/KM^app) (4)
Curves were fitted by non-linear regression analysis (Prism) using a fixed value for the enzyme concentration.

[3] = biological target: Wild-type cruzipain (Trypanosoma cruzi, UniProt P25779); experiment: Trypanosoma cruzi cruzipain peptidase activity assay (Ki); conditions: read-out: Ki, inhibitors of cruzain and cruzipains
Wild-type cruzipain, sequence (P25779 whole entry): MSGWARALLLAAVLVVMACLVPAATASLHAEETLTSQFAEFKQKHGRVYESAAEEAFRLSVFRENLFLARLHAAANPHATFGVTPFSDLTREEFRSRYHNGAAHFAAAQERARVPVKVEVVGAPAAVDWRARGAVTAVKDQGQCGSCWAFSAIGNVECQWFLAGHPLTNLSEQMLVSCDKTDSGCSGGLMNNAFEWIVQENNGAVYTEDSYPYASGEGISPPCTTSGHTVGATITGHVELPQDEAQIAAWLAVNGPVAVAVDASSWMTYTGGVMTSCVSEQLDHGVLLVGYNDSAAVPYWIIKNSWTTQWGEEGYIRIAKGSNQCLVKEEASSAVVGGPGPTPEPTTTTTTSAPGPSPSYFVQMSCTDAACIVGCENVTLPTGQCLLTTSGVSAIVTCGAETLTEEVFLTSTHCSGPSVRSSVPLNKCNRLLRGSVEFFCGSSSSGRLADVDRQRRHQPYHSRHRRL
In short: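 Native cruzipain from T. cruzi Dm28 epimastigotes, 2.5 nM, in 100 mM sodium phosphate pH 6.75 with 1 mM EDTA and 10 mM L-cysteine, 25 °C, DMSO <1%. Rates taken from continuous fluorogenic substrate read; Ki by regression assuming reversible pure-competitive inhibition.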

[4] = biological target: T3, CPB2.8ΔCTE (Leishmania mexicana, UniProt P36400); experiment: Leishmania mexicana cysteine protease B (CPB) peptidase activity assay (Ki); conditions: Ki, inhibitors of Leismania mexicana CPB protease
T3 construct: Wild-type recombinant CPB without the C-terminal extention (i.e. CPB2.8ΔCTE); Dr. Jeremy Mottram (Wellcome Centre for Molecular Parasitology, University of Glasgow)
T3 sequence (P36400 126-343, stated change not applied): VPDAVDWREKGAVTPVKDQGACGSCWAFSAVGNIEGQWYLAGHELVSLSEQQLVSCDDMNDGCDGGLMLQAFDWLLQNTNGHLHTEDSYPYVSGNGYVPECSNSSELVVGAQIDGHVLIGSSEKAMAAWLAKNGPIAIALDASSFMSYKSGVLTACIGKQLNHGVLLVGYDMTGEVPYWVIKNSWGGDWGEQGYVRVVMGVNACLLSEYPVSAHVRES
In short: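 Recombinant CPB2.8ΔCTE (0.25 nM) was assayed in 100 mM sodium acetate pH 5.5 with 1 mM EDTA, 200 mM NaCl and 10 mM DTT at 25 °C, DMSO <1%, enzyme added to start. Rates were taken from continuous fluorescence slopes; apparent Ki was fitted assuming reversible, pure-competitive inhibition.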

[5] = read-out: Ki, inhibitors of cathepsin B

T1 sequence (P07711 114-333): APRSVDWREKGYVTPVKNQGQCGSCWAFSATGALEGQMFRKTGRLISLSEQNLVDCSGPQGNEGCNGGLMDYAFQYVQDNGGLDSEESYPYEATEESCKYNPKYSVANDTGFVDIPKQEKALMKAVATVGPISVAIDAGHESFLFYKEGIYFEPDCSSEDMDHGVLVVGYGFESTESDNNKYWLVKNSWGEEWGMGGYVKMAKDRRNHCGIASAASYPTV

Row | Ki [1] | Compound | Ki [2, 5] | Ki [3] | Ki [4] | Ki [2]
1 | < 5 µM | O=C(N[C@@H](CC1CCCCC1)C(=O)N1CC[C@@H]2[C@H]1C(=O)CN2C(=O)c1ccc(-c2ccccc2)s1)c1ccsc1 [Example 258, (3aR,6aS)-Thiophene-3-carboxylic acid {(1S)-1-cyclohexylmethyl-2-oxo-2-[6-oxo-4-(5-phenyl-thiophene-2-carbonyl)-hexahydro-pyrrolo[3,2-b]pyrrole-1-yl]-ethyl}-amide] | < 5 µM | – | – | –
2 | < 5 µM | O=C(N[C@@H](CSCc1ccccc1)C(=O)N1CC[C@@H]2[C@H]1C(=O)CN2C(=O)c1ccccc1)c1ccc2ncsc2c1 [Example 281, (3aR,6aS)-Benzothiazole-6-carboxylic acid [(1R)-2-(4-benzoyl-6-oxo-hexahydro-pyrrolo[3,2-b]pyrrole-1-yl)-1-benzylsulfanylmethyl-2-oxo-ethyl]-amide] | < 5 µM | – | – | –
3 | – | CC(C)C[C@H](NC(=O)c1ccc(N(C)C)cc1)C(=O)N1CC[C@@H]2[C@H]1C(=O)CN2C(=O)c1ccc(Cl)cc1 [Example 74, (3aR,6aS)-N-{(1S)-1-[4-(4-Chloro-benzoyl)-6-oxo-hexahydro-pyrrolo[3,2-b]pyrrole-1-carbonyl]-3-methyl-butyl}-4-dimethylamino-benzamide] | < 5 µM | < 5 µM | < 5 µM | –
4 | – | CC(C)C[C@H](NC(=O)c1ccc(N(C)C)cc1)C(=O)N1CC[C@@H]2[C@H]1C(=O)CN2C(=O)c1ccc(Cl)s1 [Example 166, (3aR,6aS)-N-{(1S)-1-[4-(5-Chloro-thiophene-2-carbonyl)-6-oxo-hexahydro-pyrrolo[3,2-b]pyrrole-1-carbonyl]-3-methyl-butyl}-4-dimethylamino-benzamide] | < 5 µM | < 5 µM | < 5 µM | –
5 | – | CC(C)C[C@H](NC(=O)c1ccc(N(C)C)cc1)C(=O)N1CC[C@@H]2[C@H]1C(=O)CN2C(=O)c1ccc2nonc2c1 [Example 102, (3aR,6aS)-N-{(1S)-1-[4-(Benzo[1,2,5]oxadiazole-5-carbonyl)-6-oxo-hexahydro-pyrrolo[3,2-b]pyrrole-1-carbonyl]-3-methyl-butyl}-4-dimethylamino-benzamide] | < 5 µM | < 5 µM | < 5 µM | –
6 | – | CC(C)C[C@H](NC(=O)c1ccc(N(C)C)cc1)C(=O)N1CC[C@@H]2[C@H]1C(=O)CN2C(=O)C1CCCCCC1 [Example 135, (3aR,6aS)-N-[(1S)-1-(4-Cycloheptanecarbonyl-6-oxo-hexahydro-pyrrolo[3,2-b]pyrrole-1-carbonyl)-3-methyl-butyl]-4-dimethylamino-benzamide] | – | < 5 µM | < 5 µM | < 5 µM
7 | – | CC(C)C[C@H](NC(=O)c1ccc(C(C)(C)C)cc1)C(=O)N1CC[C@@H]2[C@H]1C(=O)CN2C(=O)c1csc(-c2ccccc2)n1 [Example 27, (3aR,6aS)-4-tert-Butyl-N-{(1S)-3-methyl-1-[6-oxo-4-(2-phenyl-thiazole-4-carbonyl)-hexahydro-pyrrolo[3,2-b]pyrrole-1-carbonyl]-butyl}-benzamide] | < 5 µM | < 5 µM | < 5 µM | –
8 | – | CC(C)C[C@H](NC(=O)c1ccc(N(C)C)cc1)C(=O)N1CC[C@@H]2[C@H]1C(=O)CN2C(=O)c1ccc(F)cc1 [Example 57, (3aR,6aS)-4-Dimethylamino-N-{(1S)-1-[4-(4-fluoro-benzoyl)-6-oxo-hexahydro-pyrrolo[3,2-b]pyrrole-1-carbonyl]-3-methyl-butyl}-benzamide] | < 5 µM | – | < 5 µM | –
9 | – | CC(C)C[C@H](NC(=O)c1ccc(C(C)(C)C)cc1)C(=O)N1CC[C@@H]2[C@H]1C(=O)CN2C(=O)c1cncc(-c2cccs2)c1 [Example 35, (3aR,6aS)-4-tert-Butyl-N-{(1S)-3-methyl-1-[6-oxo-4-(5-thiophen-2-yl-pyridine-3-carbonyl)-hexahydro-pyrrolo[3,2-b]pyrrole-1-carbonyl]-butyl}-benzamide] | < 5 µM | < 5 µM | < 5 µM | –
10 | – | CC(C)C[C@H](NC(=O)c1ccc(C(C)(C)C)cc1)C(=O)N1CC[C@@H]2[C@H]1C(=O)CN2C(=O)c1ccc2ccccc2c1 [Example 34, (3aR,6aS)-4-tert-Butyl-N-{(1S)-3-methyl-1-[4-(naphthalene-2-carbonyl)-6-oxo-hexahydro-pyrrolo[3,2-b]pyrrole-1-carbonyl]-butyl}-benzamide] | < 5 µM | < 5 µM | < 5 µM | –
11 | – | CC(C)C[C@H](NC(=O)c1ccc(N(C)C)cc1)C(=O)N1CC[C@@H]2[C@H]1C(=O)CN2C(=O)c1ccc2c(c1)OCO2 [Example 77, (3aR,6aS)-N-{(1S)-1-[4-(Benzo[1,3]dioxole-5-carbonyl)-6-oxo-hexahydro-pyrrolo[3,2-b]pyrrole-1-carbonyl]-3-methyl-butyl}-4-dimethylamino-benzamide] | < 5 µM | < 5 µM | < 5 µM | –
12 | – | CC(C)C[C@H](NC(=O)c1ccc(N(C)C)cc1)C(=O)N1CC[C@@H]2[C@H]1C(=O)CN2C(=O)c1cccc(S(C)(=O)=O)c1 [Example 43, (3aR,6aS)-4-Dimethylamino-N-{(1S)-1-[4-(3-methanesulfonyl-benzoyl)-6-oxo-hexahydro-pyrrolo[3,2-b]pyrrole-1-carbonyl]-3-methyl-butyl}-benzamide] | < 5 µM | < 5 µM | < 5 µM | –
13 | – | CC(C)C[C@H](NC(=O)c1ccc(N(C)C)cc1)C(=O)N1CC[C@@H]2[C@H]1C(=O)CN2C(=O)C12CC3CC(CC(C3)C1)C2 [Example 48, (3aR,6aS)-N-{(1S)-1-[4-(Adamantane-1-carbonyl)-6-oxo-hexahydro-pyrrolo[3,2-b]pyrrole-1-carbonyl]-3-methyl-butyl}-4-dimethylamino-benzamide] | < 5 µM | < 5 µM | < 5 µM | –
14 | – | CC(C)C[C@H](NC(=O)c1ccc(N(C)C)cc1)C(=O)N1CC[C@@H]2[C@H]1C(=O)CN2C(=O)c1cccc([N+](=O)[O-])c1 [Example 46, (3aR,6aS)-4-Dimethylamino-N-{(1S)-3-methyl-1-[4-(3-nitro-benzoyl)-6-oxo-hexahydro-pyrrolo[3,2-b]pyrrole-1-carbonyl]-butyl}-benzamide] | < 5 µM | < 5 µM | < 5 µM | –
15 | – | CC(C)C[C@H](NC(=O)c1ccc(N(C)C)cc1)C(=O)N1CC[C@@H]2[C@H]1C(=O)CN2C(=O)c1ccc2cc[nH]c2c1 [Example 99, (3aR,6aS)-4-Dimethylamino-N-{(1S)-1-[4-(1H-indole-6-carbonyl)-6-oxo-hexahydro-pyrrolo[3,2-b]pyrrole-1-carbonyl]-3-methyl-butyl}-benzamide] | < 5 µM | < 5 µM | < 5 µM | –
16 | – | CCC(C)CC(=O)N1CC(=O)[C@@H]2[C@H]1CCN2C(=O)[C@H](CC(C)C)NC(=O)c1ccc(N(C)C)cc1 (stereo partly drawn) [Example 141, (3aR,6aS)-4-Dimethylamino-N-{(1S)-3-methyl-1-[4-(3-methyl-pentanoyl)-6-oxo-hexahydro-pyrrolo[3,2-b]pyrrole-1-carbonyl]-butyl}-benzamide] | < 5 µM | < 5 µM | < 5 µM | –
17 | – | CCN(CC)c1ccc(C(=O)N[C@@H](CC(C)C)C(=O)N2CC[C@@H]3[C@H]2C(=O)CN3C(=O)c2cccc(S(C)(=O)=O)c2)cc1 [Example 60, (3aR,6aS)-4-Diethylamino-N-{(1S)-1-[4-(3-methanesulfonyl-benzoyl)-6-oxo-hexahydro-pyrrolo[3,2-b]pyrrole-1-carbonyl]-3-methyl-butyl}-benzamide] | < 5 µM | < 5 µM | < 5 µM | –
